# Laboratory results: US20100254940A1, “Compositions and Methods for Regulating an Immune Response in a Subject” (INNATE PHARMA, S.A., priority 2002, published 2010)
# “And” between values parts separate entries of the source, which are not always exact repeats. Equal values may be shown once.
# How the values were obtained:
# Vγ9Vδ2 T cells = assay: Phosphostim (BrHPP) i.v. pharmaco-dynamic GLP study in cynomolgus monkeys; format: in vivo
# Protocol: The objective of this GLP study was to explore further the pharmaco-dynamic properties of Phosphostim (BrHPP, 200 mg; GMP batch) alone and in combination with IL-2 following several i.v. administrations to cynomolgus monkeys. In particular, this study was planned to evaluate: • A dose-effect relationship between Phosphostim injection and γδ T cell peripheral amplification; • The pharmaco-dynamic effect of a second, third and up to fifth administration of Phosphostim in male and female animals; • The functionality of in vivo induced γδ T cells, by dosing systemic cytokines after Phosphostim treatment; • The effect of treatment with IL-2 alone and to validate the selected dose of 0.6 million IU/day/animal.
# Phosphostim was administered i.v., as slow infusions (50 ml in 30 minutes), at various dose levels to five groups of two animals (one male+one female). Males received two successive injections of BrHPP (Day 0 and Day 22) before sacrifice and females four injections (Days 0, 22, 52 and 84). Two females, selected upon their level of response to the 4th treatment, received a supplementary injection of BrHPP alone at Day 91, during γδ cell peripheral increase, for systemic cytokine dosages.
# The administration schedule of the test product can be summarized as follows in Table 1:
# The dose levels in Table 1 are can be converted to BrHPP pure (anionic) form equivalent by multiplying each dose by 0.6. Thus, the doses of 0.2, 4, 20, 50, 80, 120 and 160 mg/kg in Table 1 are equivalent respectively to 0.12, 2.4, 12, 30, 48, 72 and 96 mg/kg of anionic form BrHPP. • IL-2 was administered s.c. at the following frequency: from Day 0 to Day 6 and from Day 22 to Day 28 for all animals; from Day 52 to 58 and from Day 84 to Day 90 for all the females. IL-2 was administered as two separate s.c. injections approximately 8 hours apart of 0.3 million IU, corresponding to 0.6 million IU/day/animal.
# Vg9Vd2 T cells = assay: Peripheral Vg9Vd2 T cell expansion in cynomolgus monkeys by flow cytometry (BrHPP non-GLP studies); format: in vivo, cynomolgus monkeys (M. fascicularis); conditions: for Absolute increase of Vg9Vd2: individual animals
# Protocol: • Group 1: 5 purpose bred healthy male cynomolgus monkeys (M. fascicularis), supplied by C.R.P. Le Vallon, Ferney S.E., Mahebourg, Mauritius. At the beginning of the study, body weights range from 3.7 to 4.6 kg. • Group 2: 10 purpose bred healthy cynomolgus monkeys (5 males and 5 females), supplied by C.R.P. Le Vallon. At the beginning of the study, body weights range from 1.8 to 3.5 kg and ages from 2 to 3 years.
# • Group 1: animals were anaesthetised with intra-muscular injection of 6 mg/kg ZoletilND 100 (Tiletamine-Zolazepam, Virbac, Carros, France) before any injection or blood taking. • Group 2: injections and blood taking were performed on manually restrained non-anaesthetised animals. • 4-day BrHPP alone treatment (group 1): 2 animals received 1 mg/kg of BrHPP in 10 ml saline on day 0 (microflex infusion set introduced into the external saphenous vein) and then 4 mg/kg, 16 mg/kg and 32 mg/kg in 20 ml saline on days 1, 2 and 3 by the same way. (Duration of infusion: 10 to 15 min). • BrHPP/IL2 co-treatments (group 1): 5 animals received either 20 mg/kg once or 4 mg/kg (16.7 mg/kg or 3.3 mg/kg of BrHPP anionic form) 5 times daily of BrHPP in final 50 ml saline by the same way as above (duration of infusion: 30 min). IL2 (18 million UI per vial, Proleukin®, Chiron, US) was resuspended in 1 ml sterile water and diluted to 10 ml with 4% HSA for a final concentration of 1.8 million UI/ml. In a first cycle of treatment, all animals received the same dose of IL2 consisting of 5 days of twice daily injections of 0.9 million units IL2. In a second cycle of treatment, animals received subcutaneously the following IL2 treatment: 0.15 million units twice daily for 9 days (animal Z059), 0.3 million units twice daily for 5 days (Z135), 0.9 million units twice daily for 5 days (animal Z714) or 9 days (animal X973).
# A single animal received 80 mg/kg (66.6 mg/kg anionic form) BrHPP+9 days of IL2 co-treatment consisting of a single daily subcutaneous injection of 0.6 million units. • BrHPP/IL2 co-treatments (group 2): BrHPP was diluted in saline to the appropriate final concentration (depending on the dose to inject and on the last recorded body weight) so as to inject always approximately 50 ml in 30 min (microflex infusion set introduced into cephalic or external saphenous vein). All animals received 0.6 million IU IL2 per day for 7 days. IL2 was administered subcutaneously as 2 separate injections of 0.3 million IU IL2 in sterile water, 8-hour apart. Control animals received IL2 only.
# Twice weekly blood samples (1 to 4 ml) were withdrawn from femoral vessels/artery into EDTA containing tubes. Tubes were shipped overnight at room temperature (RT) before flow cytometry analyses.
# Peripheral γδ lymphocytes were analysed twice weekly by flow cytometry on total monkey blood, after double staining with anti-CD3-PE antibody and anti-Vgamma9-FITC antibodies and/or anti Vd2 antibodies (CD3-PE: SP34 clone, BD Biosciences Pharmingen, Le Pont de Claix, France). Anti Vgamma 9, clone 7B6 is a monoclonal raised to human Vgamma 9 but that cross-reacts with cynomolgus cells. It was purified by affinity chromatography on protein A and coupled to FITC as previously described.
# Briefly, 50 μl monkey blood is incubated 15 min at RT with 5 μl anti-CD3-PE and 6 μl anti-delta2-FITC or 10 μl anti-gamma9-FITC antibodies. Antibodies are washed with 3 ml 1×PBS, centrifuged for 4 min at 1300 rpm at RT and supernatant is discarded. Red cells are lysed with the OptiLyse C reagent (Immunotech-Beckman-Coulter, Marseilles, France) according to the manufacturer's instructions. At the final step, stained white blood cells are recovered by centrifugation and resuspended in 300 μl PBS+0.2% PFA.
# [1] = highest concentration (160 mg/kg), second injection + IL2
substance,measurement,setting,value
3-(bromomethyl)-3-butanol-1-yl-diphosphate [BrHPP],γδ cell number increase,Vγ9Vδ2 T cells; 20 mg/kg (12 mg/kg anionic form) + IL-2,20 fold
same,increase in circulating γδ cell count,Vγ9Vδ2 T cells; at around 120 mg/kg (EC50) + IL-2,100 fold
same,circulating Vγ9Vδ2 T cells vs before treatment,Vγ9Vδ2 T cells; highest tested dose + IL-2,200 fold
same,share of circulating Vγ9Vδ2 T cells in peripheral lymphocytes,Vγ9Vδ2 T cells; highest tested dose + IL-2,represented the majority of peripheral lymphocytes
same,"estimated EC50 value in vivo, anionic form BrHPP",Vγ9Vδ2 T cells; i.v. + IL-2,~72 mg/kg
same,estimated EC50 value of BrHPP in vivo,Vγ9Vδ2 T cells; i.v. + IL-2,around 120 mg/kg
same,first slightly efficient tested dose,"Vγ9Vδ2 T cells; i.v. + IL-2, Day 7",4 mg/kg
same,"first slightly efficient tested dose, anionic form BrHPP","Vγ9Vδ2 T cells; i.v. + IL-2, Day 7",2.4 mg/kg
same,% and absolute numbers of Vg9Vd2,Vg9Vd2 T cells; 0.2 mg/kg + IL2 7 days,undistinguishable from the control animals
same,peak of increase in peripheral γδ cells,"Vg9Vd2 T cells; 20 mg/kg once or 4 mg/kg x 5 + IL2, group 1",7 days
same,% and absolute numbers of Vg9Vd2,"Vg9Vd2 T cells; 4 to 80 mg/kg + IL2, day 7",A dose range effect was observed
same,expansion at recall,"Vg9Vd2 T cells; first 20 mg, then 80 mg",expansions comparable to animals treated with 80 mg/kg at the first injection
same,expansion at recall,"Vg9Vd2 T cells; first 80 mg/kg, then 20 mg/kg, vs first injection at 20 mg/kg",decreased expansion
same,% of Vg9Vd2,"Vg9Vd2 T cells; five daily injection of 0.2 mg/kg BrHPP alone, 4 monkeys",expansion was not significant
same,Follow up of Vg9Vd2,"Vg9Vd2 T cells; four daily injections 1, 4, 16, 32 mg/kg BrHPP alone, two animals",a decrease at day two post first injection
same,increase of Vg9Vd2,"Vg9Vd2 T cells; fourth injection of 80 mg/kg BrHPP and IL2, five animals",detectable increase of Vg9Vd2 although lower than that obtained in the third injection
same,absolute numbers of Vg9Vd2 (mean),Vg9Vd2 T cells; [1],"10,000 Vg9Vd2 cells/mm3"
same,level of circulating Vg9Vd2 among circulating CD3 positive cells,Vg9Vd2 T cells; [1],about 80%
same,Absolute increase of Vg9Vd2,"Vg9Vd2 T cells; same dose split in 5 daily injections of 4 mg/kg + IL2 5 days, 4 mg/kg",8 × and 18 ×
same,amplification rate at the second injection vs first,"Vg9Vd2 T cells; second single shot 20 mg/kg + IL2, animals with 5 daily 4 mg/kg at first injection",slightly higher amplification rate
same,amplification rate in the second injection vs first,"Vg9Vd2 T cells; second single shot 20 mg/kg + IL2, animals with single shot at first injection",slightly reduced amplification rate
same,Absolute increase of Vg9Vd2,"Vg9Vd2 T cells; single dose 20 mg/kg + IL2 5 days, 20 mg/kg",30 × and 40 ×
same,increase of Vγ9Vδ2,"Vg9Vd2 T cells; third cycle 80 mg/kg + IL2, control animal which received only IL2 in first two courses",around 40
same,increase of Vγ9Vδ2 at the third injection,"Vg9Vd2 T cells; third injection 80 mg/kg + IL2, animal 2034",28 ×
same,amplification of Vγ9Vδ2,"Vg9Vd2 T cells; third injection 80 mg/kg + IL2, three other animals",lower than 40
same,mean increase of peripheral γδ cell number,"Vg9Vd2 T cells; total amount of 20 mg/kg BrHPP + IL2, day 7",24 fold
